Assay [1] deals with ZIKV. Put plainly: Screening test for anti-ZIKV activity (post-infection, compounds at CC20, TCID50 titration). Type of assay: cell-based, Zika virus. The note with it: ZIKV MOI 0.1, compound at CC20, 5 days, TCID50, Vero cells. As to the method: The antiviral activities of the compounds were evaluated by infecting Vero cells with ZIKV and then treating them with the testing molecules. Virus titer in the supernatants of treated wells and its comparison with the negative (cell + virus) and the positive 6-methylmercaptopurine riboside (6MMPr) controls allowed for the determination of the antiviral effect.
Figure 4 Graphic result of all triazole derivates in the screening test for anti-ZIKV activity. The screening test was made for post-infection with ZIKV MOI 0.1 and treated with CC20 values from heterocyclic compounds discovered in the cytotoxicity test. After five days, the supernatant was collected and titrated by TCID50 method. The experiment was conducted in triplicates and values are the mean and the standard deviation (SD). […]
96-well plates with 1 × 10^4 cell/well were used in this assay and prepared 24 h previously. […] The reading was performed in an inverted optical microscope AE2000, Motic (Motic, Kowloon Bay, Hong Kong) counting positives wells by the presence of cytopathic effect and the determination of the sample title was performed with the aid of the Microsoft Office Excel program (Microsoft® Office, Redmond, WA, USA).
The screening of the compounds was carried out with the CC20 value (µM) to determine the most viable compounds for more detailed antiviral tests. […] The samples were then titrated and analysed statistically.

Assay [2] relates to ZIKV. The assay can be described thus: Post-infection test with ZIKV in Vero cells. The note with it: for inhibition at 136.9 µM: CC20 (4b 136.90 µM; 6MMPr 60.50 µM); for inhibition at 136.9 µM / inhibition at 68.45 µM / inhibition at 34.23 µM / inhibition at 17.11 µM: read-out: % Viral Inhibition; for inhibition at 68.45 µM: CC20/2 (4b 68.45 µM; 6MMPr 30.25 µM); for inhibition at 34.23 µM: CC20/4 (4b 34.23 µM; 6MMPr 15.13 µM); for inhibition at 17.11 µM: CC20/8 (4b 17.11 µM; 6MMPr 7.6 µM). The class given is cell-based, Zika virus. As to the method: We then investigated the activity of compound 4b after ZIKV infection in cells. As already noted in the screening test, 4b reduced ZIKV growth to levels similar to 6MMPr, a positive control previously described by our group. As in the pre-treatment test, four different concentrations were used, with the maximum being CC20 (136.90, 68.45, 34.22 and 17.11 µM). […] It is worth highlighting the constant decrease in the viral titer, even in lower concentrations, while the positive control 6MMPr reduces it only in the highest concentrations.
Statistical analysis compared the concentrations of each compound at each collection time (3 d.p.i. and 5 d.p.i.) with a t-test.
Figure 6 Comparison of anti-ZIKV activity between 6MMPr and 4b after three- and five-days post-infection (d.p.i.). 6MMPr and compound 4b were submitted to a post-infection test when Vero cells was infected with ZIKV at MOI 0.1 for 2 h then treated with compounds. Concentrations used in the test corresponded to CC20 (4b = 136.90 µM; 6MMPr = 60.50 µM), CC20/2 (4b = 68.45 µM; 6MMPr = 30.25 µM), CC20/4 (4b = 34.22 µM; 6MMPr = 15.13 µM) and CC20/8 (4b = 17.11 µM; 6MMPr = 7.56 µM). The experiment was done in triplicates and values are the mean and the SD. Statistical analysis was made between compounds using t-test on GraphPad Prism program. * = significative; ns = not statistically significant for p < 0.05. (a) 3 d.p.i. from both compounds. (b) 5 d.p.i. from both compounds.
96-well plates with 1 × 10^4 cell/well were used in this assay and prepared 24 h previously. Seven serial dilutions of the virus were prepared in DMEM + 2% FBS culture medium. After removing the culture medium from the plate, 50 µL of each dilution was added to the wells in several repetitions. The plate was incubated at 37 °C and 5% atm CO2 for 1 h. After this interval, each well of the plate received an additional 100 µL of DMEM + 2% FBS culture medium. The plate was incubated again, in the same parameters, for 5 days. Some columns of the plate were selected for use as a cell control (culture medium only, no virus). The reading was performed in an inverted optical microscope AE2000, Motic (Motic, Kowloon Bay, Hong Kong) counting positives wells by the presence of cytopathic effect and the determination of the sample title was performed with the aid of the Microsoft Office Excel program (Microsoft® Office, Redmond, WA, USA).
48-well plates with 2.5 × 10^4 cells/well were prepared 24 h previously. A ZIKV solution at MOI 0.1 was inoculated into the wells and the cells incubated at 37 °C and 5% CO2 atmosphere. After 2 h, the culture medium was removed, and the wells were washed with 1X PBS. 2:1 dilution of 4b (136.90 µM, 68.45 µM, 34.22 µM and 17.11 µM) and 6MMPr (60.50 µM, 30.25 µM, 15.13 µM and 7.56 µM) were added in triplicate. The cells were again incubated for 72 h and 120 h. The supernatants from the wells were collected and titrated.

The structures appear in SMILES notation. Where two headings read alike, the source gives them in different places.

One may read the inhibition as the drop in the measured response relative to a control, in per cent. Take `O=C1C(Br)=C(NCc2cn(CN3C(=O)c4ccccc4C3=O)nn2)C(=O)c2ccccc21` [Compound 4b]: the “reduction in viral titer vs non-treated control” value with ZIKV [1] is listed as “statistically significant reduction in viral titer”. Besides, in the assay on ZIKV [2] (Zika virus, 72 h, 3 d.p.i.), the inhibition at 136.9 µM is 94.9%, the inhibition at 68.45 µM was 85.6% and the inhibition at 34.23 µM came out at 85.8%. For the same molecule, the inhibition at 17.11 µM in the assay with ZIKV [2] (Zika virus, 72 h, 3 d.p.i., negative = increased virus titer compared to control) was found to be 88.8%. Also, in the assay on ZIKV [2] (Zika virus, 120 h, 5 d.p.i.), the inhibition at 136.9 µM turned out to be 97.5%, the inhibition at 68.45 µM is 93.7%, the inhibition at 34.23 µM was 90.8% and the inhibition at 17.11 µM is 96.8%. The IC50 with ZIKV [2] (Zika virus, Vero, read-out: IC50 (50% inhibition concentration, virus replication)) came to 146 µM. For the same molecule, the “% Viral Inhibition” value in the assay with ZIKV [2] (post-infection test, Table 4, concentration and time not stated) stood at 91.1%. The “effect on growth of the virus (viral titer)” value in the assay with ZIKV [2] (post-infection, four concentrations from CC20 to CC20/8, 3 and 5 d.p.i.) was “inhibits the growth of the virus at all concentrations used”. Besides, the “SI (selectivity index)” value in the assay on ZIKV [2] (ratio between the CC50 and IC50 values) turned out to be 2.3.
